Laboratory results: PMC7760137, “Solid Lipid Nanoparticles as Formulative Strategy to Increase Oral Permeation of a Molecule Active in Multidrug-Resistant Tuberculosis Management” (Pharmaceutics, 2020)
≈ marks a conversion by molar mass, not a printed value.

How the values were obtained:
[1] = system: M. tuberculosis strain 1097; assay: Drug sensitivity testing, Bactec MGIT 960; assay type: cell-based, Mycobacterium tuberculosis; set-up: key: sensitive (S); resistant (R)
[2] = system: M. tuberculosis strain 571; assay: Drug sensitivity testing, Bactec MGIT 960; assay type: cell-based, Mycobacterium tuberculosis; set-up: key: sensitive (S); resistant (R)
[3] = system: M. tuberculosis strain 368; assay: Drug sensitivity testing, Bactec MGIT 960; assay type: cell-based, Mycobacterium tuberculosis; set-up: key: sensitive (S); resistant (R)
[4] = system: M. tuberculosis clinical isolate 512; assay: microbe, parasite or virus in culture; assay type: cell-based; settings: Mycobacterium tuberculosis
[5] = system: M. tuberculosis clinical isolate 952; assay: microbe, parasite or virus in culture; assay type: cell-based; settings: Mycobacterium tuberculosis
[6] = system: M. tuberculosis strain 600; assay: Drug sensitivity testing, Bactec MGIT 960; assay type: cell-based, Mycobacterium tuberculosis; set-up: key: sensitive (S); resistant (R)
[7] = system: M. tuberculosis strain 1120; assay: Drug sensitivity testing, Bactec MGIT 960; assay type: cell-based, Mycobacterium tuberculosis; set-up: key: sensitive (S); resistant (R)
[8] = system: M. tuberculosis strain 1670; assay: Drug sensitivity testing, Bactec MGIT 960; assay type: cell-based, Mycobacterium tuberculosis; set-up: key: sensitive (S); resistant (R)
[9] = system: M. tuberculosis clinical isolate 600; assay: microbe, parasite or virus in culture; assay type: cell-based; settings: Mycobacterium tuberculosis
[10] = system: M. tuberculosis H37Rv strain (ATCC 27294); assay: Resazurin microtiter assay (REMA); assay type: cell-based; settings: Mycobacterium tuberculosis, drug alone
Method: REMA assays were performed in sterile 96-well microtiter plates with round-bottom wells, sealed in a plastic bag. Mycobacteria were cultured in Middlebrook 7H11 medium supplemented with OADC. […] Final bacterial inocula were approximately 1–5 × 10^5 CFU/mL. Plates were incubated at 37 °C and were read after 72 h. Once the final visual reading was performed, 30 μL of 0.02% resazurin was added to each well before reincubation overnight. Bacterial growth was measured by the change in color from blue (oxidized state) to pink (reduced), and minimal inhibitory concentration (MIC) was defined as the lowest drug concentration that prevented the color change and, therefore, the mycobacteria growth.

[11] = system: M. tuberculosis strain 952; assay: Drug sensitivity testing, Bactec MGIT 960; assay type: cell-based, Mycobacterium tuberculosis; set-up: key: sensitive (S); resistant (R)
[12] = system: M. tuberculosis H37Rv; assay: Drug sensitivity testing, Bactec MGIT 960; assay type: cell-based, Mycobacterium tuberculosis; set-up: key: sensitive (S); resistant (R); settings: strain H37Rv
[13] = system: M. tuberculosis clinical isolate 1762; assay: microbe, parasite or virus in culture; assay type: cell-based; settings: Mycobacterium tuberculosis
[14] = system: M. tuberculosis clinical isolate 1120; assay: microbe, parasite or virus in culture; assay type: cell-based; settings: Mycobacterium tuberculosis
[15] = system: M. tuberculosis clinical isolate 1097; assay: microbe, parasite or virus in culture; assay type: cell-based; settings: Mycobacterium tuberculosis
[16] = system: M. tuberculosis clinical isolate 368; assay: microbe, parasite or virus in culture; assay type: cell-based; settings: Mycobacterium tuberculosis
[17] = system: M. tuberculosis clinical isolate 571; assay: microbe, parasite or virus in culture; assay type: cell-based; settings: Mycobacterium tuberculosis
[18] = system: M. tuberculosis strain 1762; assay: Drug sensitivity testing, Bactec MGIT 960; assay type: cell-based, Mycobacterium tuberculosis; set-up: key: sensitive (S); resistant (R)
[19] = system: M. tuberculosis strain 512; assay: Drug sensitivity testing, Bactec MGIT 960; assay type: cell-based, Mycobacterium tuberculosis; set-up: key: sensitive (S); resistant (R)
[20] = system: M. tuberculosis clinical isolate 1670; assay: microbe, parasite or virus in culture; assay type: cell-based; settings: Mycobacterium tuberculosis

Compound | Drug sensitivity test result [1] | Drug sensitivity test result [2] | Drug sensitivity test result [3] | MIC [4] | MIC [5] | Drug sensitivity test result [6] | Drug sensitivity test result [7] | Drug sensitivity test result [8] | MIC [9] | MIC [10] | Drug sensitivity test result [11] | Drug sensitivity test result [12] | MIC [13] | MIC [14] | MIC [15] | MIC [16] | MIC [17] | Drug sensitivity test result [18] | Drug sensitivity test result [19] | MIC [20]
CO[C@H]1/C=C/O[C@@]2(C)Oc3c(C)c(O)c4c(O)c(c(/C=N/N5CCN(C)CC5)c(O)c4c3C2=O)NC(=O)/C(C)=C\C=C\[C@H](C)[C@H](O)[C@@H](C)[C@@H](O)[C@@H](C)[C@H](OC(C)=O)[C@@H]1C [RIF, rifampicin] | S | R | S | > 2 µg/mL | 0.5 µg/mL (≈ 0.608 µM) | R | R | S | > 2 µg/mL | 0.25 µg/mL (≈ 0.304 µM) | R | S | > 2 µg/mL | 8 µg/mL (≈ 9.72 µM) | 0.25 µg/mL (≈ 0.304 µM) | 0.25 µg/mL (≈ 0.304 µM) | > 2 µg/mL | R | R | 0.125 µg/mL (≈ 0.152 µM)
NNC(=O)c1ccncc1 [INH, isoniazid] | R | R | R | 1 µg/mL (≈ 7.29 µM) | 0.062 µg/mL (≈ 0.452 µM) | R | R | S | > 1 µg/mL | 0.125 µg/mL (≈ 0.911 µM) | S | S | 0.062 µg/mL (≈ 0.452 µM) | > 16 µg/mL | 2 µg/mL (≈ 14.6 µM) | < 1 µg/mL | > 1 µg/mL | S | R | 0.125 µg/mL (≈ 0.911 µM)
[H]/N=C(/N)N[C@H]1[C@H](O)[C@@H](O)[C@H](O[C@@H]2O[C@@H](C)[C@](O)(C=O)[C@H]2O[C@@H]2O[C@@H](CO)[C@H](O)[C@@H](O)[C@@H]2NC)[C@@H](N/C(N)=N\[H])[C@@H]1O [SM, streptomycin] | R | R | S | 0.5 µg/mL (≈ 0.86 µM) | 0.062 µg/mL (≈ 0.107 µM) | R | R | S | > 4 µg/mL | 0.125 µg/mL (≈ 0.215 µM) | S | S | 0.125 µg/mL (≈ 0.215 µM) | 4 µg/mL (≈ 6.88 µM) | 4 µg/mL (≈ 6.88 µM) | 0.5 µg/mL (≈ 0.86 µM) | 0.25 µg/mL (≈ 0.43 µM) | S | S | 0.125 µg/mL (≈ 0.215 µM)
CC[C@@H](CO)NCCN[C@@H](CC)CO [EMB, ethambutol] | R | R | R | 4 µg/mL (≈ 19.6 µM) | 1 µg/mL (≈ 4.89 µM) | R | R | S | > 16 µg/mL | 1 µg/mL (≈ 4.89 µM) | S | S | 4 µg/mL (≈ 19.6 µM) | > 64 µg/mL | 32 µg/mL (≈ 157 µM) | > 16 µg/mL | > 16 µg/mL | R | R | 1 µg/mL (≈ 4.89 µM)
